From PubChem BioAssay (NCI)
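At the GI50, growth is halved. The concentration for full growth arrest is given as TGI.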

Tests used:
Assay in all cases: growth of human tumour cells (NCI), 384-well format
HCT-15 colon = test system: HCT-15 colon
EKVX NSCLC = test system: EKVX NSCLC
SK-OV-3 ovarian = test system: SK-OV-3 ovarian
ACHN renal = test system: ACHN renal
RXF 393 renal = test system: RXF 393 renal
U251 glioblastoma = test system: U251 glioblastoma
M14 melanoma = test system: M14 melanoma
HCC-2998 colon = test system: HCC-2998 colon
CAKI-1 renal = test system: CAKI-1 renal
786-0 renal = test system: 786-0 renal
MALME-3M melanoma = test system: MALME-3M melanoma
HCT-116 colon = test system: HCT-116 colon
HOP-62 NSCLC = test system: HOP-62 NSCLC
A498 renal = test system: A498 renal
BT-549 breast = test system: BT-549 breast
MOLT-4 leukemia = test system: MOLT-4 leukemia
SK-MEL-5 melanoma = test system: SK-MEL-5 melanoma
LOX IMVI melanoma = test system: LOX IMVI melanoma
SK-MEL-28 melanoma = test system: SK-MEL-28 melanoma
SW-620 colon = test system: SW-620 colon
HT29 colon = test system: HT29 colon
PC-3 prostate = test system: PC-3 prostate
T-47D breast = test system: T-47D breast
SF-539 CNS = test system: SF-539 CNS
TK-10 renal = test system: TK-10 renal
SK-MEL-2 melanoma = test system: SK-MEL-2 melanoma
MDA-MB-231 breast = test system: MDA-MB-231 breast
NCI-H522 lung = test system: NCI-H522 lung
OVCAR-3 ovarian = test system: OVCAR-3 ovarian
OVCAR-5 ovarian = test system: OVCAR-5 ovarian
SF-295 CNS = test system: SF-295 CNS
NCI-H23 lung = test system: NCI-H23 lung
NCI-H322M lung = test system: NCI-H322M lung
MCF7 breast = test system: MCF7 breast
CCRF-CEM leukemia = test system: CCRF-CEM leukemia
HL-60(TB) leukemia = test system: HL-60(TB) leukemia
SNB-75 CNS = test system: SNB-75 CNS
NCI-H226 lung = test system: NCI-H226 lung
OVCAR-8 ovarian = test system: OVCAR-8 ovarian
IGROV1 ovarian = test system: IGROV1 ovarian
NCI-H460 NSCLC = test system: NCI-H460 NSCLC
MDA-MB-468 breast = test system: MDA-MB-468 breast
SR leukemia = test system: SR leukemia
COLO 205 colon = test system: COLO 205 colon
HS 578T breast = test system: HS 578T breast
K-562 leukemia = test system: K-562 leukemia
SF-268 CNS = test system: SF-268 CNS

Work on `Nc1nc(OCc2cc(Br)cs2)c2[nH]cnc2n1` yielded a GI50 (HCT-15 colon) of 33.9 µM, a TGI (HCT-15 colon) of over 100 µM and a GI50 (EKVX NSCLC) of 39.9 µM. It also gave a TGI (EKVX NSCLC) of over 100 µM, a GI50 (SK-OV-3 ovarian) of 29.1 µM and a TGI (SK-OV-3 ovarian) of 74.7 µM. It also gave a GI50 (ACHN renal) of 30.2 µM, a TGI (ACHN renal) of over 100 µM and a GI50 (RXF 393 renal) of 24.5 µM. It also gave a TGI (RXF 393 renal) of 62.7 µM, a GI50 (U251 glioblastoma) of 31.3 µM and a TGI (U251 glioblastoma) of over 95.1 µM. The GI50 (M14 melanoma) was 47.9 µM, the TGI (M14 melanoma) was over 100 µM and the GI50 (HCC-2998 colon) was 66.7 µM. It also gave a TGI (HCC-2998 colon) of over 100 µM, a GI50 (CAKI-1 renal) of 25.1 µM and a TGI (CAKI-1 renal) of 86.6 µM. It also gave a GI50 ([…]-0 renal) of 27.3 µM, a TGI (786-0 renal) of over 100 µM and a GI50 (MALME-3M melanoma) of 55.1 µM. For the same molecule, the TGI (MALME-3M melanoma) was over 100 µM, the GI50 (HCT-116 colon) was 38.4 µM and the TGI (HCT-116 colon) was over 100 µM. The GI50 (HOP-62 NSCLC) was 36.7 µM, the TGI (HOP-62 NSCLC) was 99.4 µM and the GI50 (A498 renal) was 30.3 µM. The TGI (A498 renal) was over 100 µM, the GI50 (BT-549 breast) was 21.8 µM and the TGI (BT-549 breast) was 53.5 µM. The GI50 (MOLT-4 leukemia) was 17.3 µM, the TGI (MOLT-4 leukemia) was 37.5 µM and the GI50 (SK-MEL-5 melanoma) was 40.9 µM. It also gave a TGI (SK-MEL-5 melanoma) of over 100 µM, a GI50 (LOX IMVI melanoma) of 22.5 µM and a TGI (LOX IMVI melanoma) of 47.8 µM. For the same molecule, the GI50 (SK-MEL-28 melanoma) was over 100 µM, the TGI (SK-MEL-28 melanoma) was over 100 µM and the GI50 (SW-620 colon) was 67.4 µM. It also gave a TGI (SW-620 colon) of over 100 µM, a GI50 (HT29 colon) of 46 µM and a TGI (HT29 colon) of over 100 µM. For the same molecule, the GI50 (PC-3 prostate) was 74 µM, the TGI (PC-3 prostate) was over 100 µM and the GI50 (T-47D breast) was 23.4 µM. It also gave a TGI (T-47D breast) of 63.5 µM, a GI50 (SF-539 CNS) of 44.2 µM and a TGI (SF-539 CNS) of over 100 µM. The GI50 (TK-10 renal) was 30.5 µM, the TGI (TK-10 renal) was over 100 µM and the GI50 (SK-MEL-2 melanoma) was 35.5 µM. It also gave a TGI (SK-MEL-2 melanoma) of 73.6 µM, a GI50 (MDA-MB-231 breast) of 40.7 µM and a TGI (MDA-MB-231 breast) of over 100 µM. It also gave a GI50 (NCI-H522 lung) of 27.6 µM, a TGI (NCI-H522 lung) of over 77 µM and a GI50 (OVCAR-3 ovarian) of 61.8 µM. For the same molecule, the TGI (OVCAR-3 ovarian) was over 100 µM, the GI50 (OVCAR-5 ovarian) was over 95.3 µM and the TGI (OVCAR-5 ovarian) was over 100 µM. The GI50 (SF-295 CNS) was 48.7 µM, the TGI (SF-295 CNS) was over 100 µM and the GI50 (NCI-H23 lung) was 42.4 µM. The TGI (NCI-H23 lung) was over 100 µM, the GI50 (NCI-H322M lung) was 30.7 µM and the TGI (NCI-H322M lung) was 80.3 µM. For the same molecule, the GI50 (MCF7 breast) was 32.6 µM, the TGI (MCF7 breast) was over 100 µM and the GI50 (CCRF-CEM leukemia) was 19.4 µM. For the same molecule, the TGI (CCRF-CEM leukemia) was 40.3 µM, the GI50 (HL-60(TB) leukemia) was 18 µM and the TGI (HL-60(TB) leukemia) was 35.8 µM. For the same molecule, the GI50 (SNB-75 CNS) was 29.7 µM, the TGI (SNB-75 CNS) was 85.4 µM and the GI50 (NCI-H226 lung) was 45.9 µM. The TGI (NCI-H226 lung) was 96.9 µM, the GI50 (OVCAR-8 ovarian) was 45.9 µM and the TGI (OVCAR-8 ovarian) was over 100 µM. The GI50 (IGROV1 ovarian) was 30.7 µM, the TGI (IGROV1 ovarian) was over 100 µM and the GI50 (NCI-H460 NSCLC) was 40.3 µM. It also gave a TGI (NCI-H460 NSCLC) of over 100 µM, a GI50 (MDA-MB-468 breast) of 16.9 µM and a TGI (MDA-MB-468 breast) of 47.5 µM. The GI50 (SR leukemia) was 8.96 µM, the TGI (SR leukemia) was 25.2 µM and the GI50 (COLO 205 colon) was 72.9 µM. It also gave a TGI (COLO 205 colon) of over 100 µM, a GI50 (HS 578T breast) of 22.8 µM and a TGI (HS 578T breast) of 61.9 µM. For the same molecule, the GI50 (K-562 leukemia) was 27.8 µM, the TGI (K-562 leukemia) was over 100 µM and the GI50 (SF-268 CNS) was 32.1 µM. It also gave a TGI (SF-268 CNS) of over 84.9 µM.
